Measured values taken from US20150293106A1, “DIAROMATIC AMINO ACID SUBSTRATE FOR CATHEPSIN DETECTION” (INDUSTRY-ACADEMIC COOPERATION FOUNDATION, YONSEI UNIVERSITY, priority 2012, published 2015).
Like-named read-outs stand apart in the source and are kept apart here. Marks after values point to notes of the source that are not given here. Where no end group is shown, it is not given here. [ ]: non-standard residue; d: D form. The star is where a group is joined. Dnp = O=[N+]([O-])c1ccc(*)c([N+](=O)[O-])c1; 2Abz = Nc1ccccc1C(=O)O

Columns and labels:
[1] = biological target: T1, cathepsin B (Homo sapiens, UniProt P07858); assay: Selective hydrolysis by cathepsins, fluorescence (FIG. 20); type: biochemical; set-up: cathepsins B and L derived from a human liver; purchased Sigma-Aldrich Chemical Co; host or cells: human liver; conditions: inventors' earlier research on DBDY-(INH)2; conditions not given
Description: (§1) The reaction was performed under alkaline conditions.
(§2) The results of experiments were illustrated in FIG. 20. Since the hydrolysis by cathepsin B was faster than the hydrolyses by papain and chymopapain, the reaction was performed with a substrate (concentration: 1.0 μM) and a protease (concentration: […]) of which the concentrations were set lower than those in Experimental Example 2 (substrate (concentration: 2.5 μM) and protease (concentration: 0.1 μM) reacted for two hours) for 30 minutes in FIG. 20. C1, C2, CB, CL, and CS represented on an X-axis respectively denote papain, chymopapain, cathepsin B, cathepsin L, and cathepsin S. Each experiment was repeated at least three times.

[2] = biological target: T2, cathepsin L (Homo sapiens, UniProt P07711); assay: as above; type: biochemical; conditions: inventors' earlier research on DBDY-(INH)2; conditions not given
T2 construct: cathepsins B and L derived from a human liver; purchased Sigma-Aldrich Chemical Co; host or cells: human liver
Description: as §1, §2

[3] = biological target: T3, dispase (Paenibacillus polymyxa, UniProt P29148); assay: Protease-catalyzed hydrolysis, restored DBDY fluorescence (selectivity, FIGS. 11-19); type: biochemical, bacillus polymyxa; conditions: substrate 2.5 μM, protease 0.1 μM, two hours; hydrolysate amino acid-INH
T3 construct: dispase derived from bacillus polymyxa; purchased Sigma-Aldrich Chemical Co; host or cells: Bacillus polymyxa
Description: as §1
The hydrolysis reaction was performed for two hours. […] Each experiment was repeated at least three times.

[4] = biological target: T4, thermolysin (Bacillus thermoproteolyticus, UniProt P00800); conditions: substrate 2.5 μM, protease 0.1 μM, two hours; hydrolysate amino acid-INH
Description: (§3) For the meaningful comparison of proteases, a hydrolysis reaction was performed under the optimum conditions as reported in other documents (regarding chymotrypsin, subtilisin, thermolysin and pepsin, refer to R. Beynon, J. S. Bond, Proteolytic Enzymes (Second Edition), Oxford University Press, 2001, pp. 295-316; regarding trypsin, proteinase K, carboxy peptidase A, collagenase, dispase, aspergillopepsin, papain, chymopapain, bromelain, cathepsin B, cathepsin L, and cathepsin S, refer to the catalog of Sigma-Aldrich Corporation).
(§4) Before the reaction, the mixtures of the reaction buffer solutions and proteases were previously incubated for 30 minutes in a water bath in which the temperature was adjusted to an analysis temperature. The hydrolysis reaction was initiated by adding a substrate dissolved in DMSO. The volume of the added substrate solution was controlled such that the final concentration of DMSO was lower than 1.5% (v/v).
The λex and λem were respectively adjusted to 284 nm and 410 nm with respect to papain, chymopapain, bromelain, cathepsins, aspergillopepsin and pepsin, and the λex and λem were respectively adjusted to 320 nm and 410 nm with respect to chymotrypsin, trypsin, subtilisin, proteinase K, thermolysin, carboxypeptidase A, collagenase and dispase. The reaction was performed under alkaline conditions.
The fluorescence measured at the end of the reaction was expressed as a final fluorescence.
The initial concentrations of each substrate and protease were respectively set to 2.5 μM and 0.1 μM. The hydrolysis reaction was performed for two hours. Reference numbers on an X-axis denoted the following: C1=papain; C2=chymopapain; C3=bromelain; S1=chymotrypsin; S2=trypsin; S3=subtilisin; S4=proteinase K; M1=thermolysin; M2=carboxypeptidase A; M3=dispase; M4=collagenase; A1=pepsin; and A2=aspergillopepsin. Each experiment was repeated at least three times.

[5] = biological target: T5, pepsin (Sus scrofa, UniProt P00791); assay: Degree of hydrolysis by protease (Table 3); type: biochemical, pig; conditions: after 2 hours; protease 10 μM; substrate 0.2 mM (G1-G3, L1-L3) or 0.1 mM (G4, L4); n.d. = no hydrolysis was detected; hydrolysate INH
T5 construct: pepsin derived from pig gastric mucosa; purchased Sigma-Aldrich Chemical Co; host or cells: pig gastric mucosa
Description: (§5) A hydrolysate was measured using a HPLC system.

[6] = biological target: T4, thermolysin; conditions: after 2 hours; protease 10 μM; substrate 0.2 mM (G1-G3, L1-L3) or 0.1 mM (G4, L4); n.d. = no hydrolysis was detected; hydrolysate INH
Description: as §3, §4
A hydrolysate was measured using a HPLC system. In order to prepare a sample, a hydrolysis reaction was terminated by adding 2% (v/v) 1M HCl with respect to a serine protease, cysteine protease and metalloprotease, and adding 1M NaOH with respect to an aspartic protease. The separation was performed using the mixture of 10 mM-ammonium bicarbonate and acetonitrile as an eluent in C-18 column (particle size: 5 μm, 250 mm×4.6 mm, pore size: 80 Å, Phenomenex, USA). The elution was performed for 15 minutes, while the linear gradient of acetonitrile was increased from 0 to 60%. The flow rate and separation temperature of the eluent were maintained at 1 mL min^−1 and 35° C. The hydrolysate was detected at a wavelength of 254 nm.
Based on the report that a hydrophobic amino acid such as phenylalanine was preferred at a P2 position in most of the papain-like cysteine proteases, Boc-aromatic amino acid-Gly-INH and Boc-aromatic amino acid-Lys-INH were prepared in particular, and experimented as a substrate with respect to chymotrypsin, trypsin, papain, pepsin and thermolysis.

[7] = biological target: T6, chymotrypsin (Bos taurus, UniProt P00766); assay: Degree of hydrolysis by protease (Table 3); type: biochemical, bovine; conditions: after 2 hours, protease 10 μM, substrate 0.2 mM (G1-G3, L1-L3) or 0.1 mM (G4, L4), n.d. = no hydrolysis was detected, hydrolysate Gly-INH (G), Lys-INH (L1-L3)
T6 construct: chymotrypsin and trypsin derived from fetal bovine pancreas; purchased Sigma-Aldrich Chemical Co; host or cells: bovine pancreas
Description: as §5

[8] = biological target: T7, papain (Carica papaya, UniProt P00784); assay: Degree of hydrolysis by protease (Table 3); type: biochemical, papaya latex; conditions: after 2 hours; protease 10 μM; substrate 0.2 mM (G1-G3, L1-L3) or 0.1 mM (G4, L4); hydrolysate INH
T7 construct: papain and chymopapain derived from papaya latex; purchased Sigma-Aldrich Chemical Co; host or cells: papaya latex
T7 sequence (P00784 134-345): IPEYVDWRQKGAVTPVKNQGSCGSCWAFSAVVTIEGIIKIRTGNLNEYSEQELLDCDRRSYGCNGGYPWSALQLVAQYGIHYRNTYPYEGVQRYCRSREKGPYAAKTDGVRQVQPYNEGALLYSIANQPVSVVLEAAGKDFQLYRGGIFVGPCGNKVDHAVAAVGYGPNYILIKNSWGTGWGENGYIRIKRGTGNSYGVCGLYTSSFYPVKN
Description: as §5

[9] = biological target: T8, trypsin (Bos taurus, UniProt P00760); assay: Degree of hydrolysis by protease (Table 3); type: biochemical, bovine; conditions: after 2 hours; protease 10 μM; substrate 0.2 mM (G1-G3, L1-L3) or 0.1 mM (G4, L4); n.d. = no hydrolysis was detected; hydrolysate INH
T8 construct: chymotrypsin and trypsin derived from fetal bovine pancreas; purchased Sigma-Aldrich Chemical Co; host or cells: bovine pancreas
T8 sequence (P00760 24-246): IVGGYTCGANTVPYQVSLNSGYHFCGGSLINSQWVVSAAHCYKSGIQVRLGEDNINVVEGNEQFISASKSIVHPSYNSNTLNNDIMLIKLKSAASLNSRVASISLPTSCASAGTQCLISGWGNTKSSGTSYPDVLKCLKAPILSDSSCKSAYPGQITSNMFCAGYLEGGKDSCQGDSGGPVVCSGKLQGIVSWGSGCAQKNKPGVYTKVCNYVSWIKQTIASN
Description: as §5

[10] = biological target: T1, cathepsin B; conditions: reported for other substances, cited from earlier work

T5 sequence (P00791 60-385): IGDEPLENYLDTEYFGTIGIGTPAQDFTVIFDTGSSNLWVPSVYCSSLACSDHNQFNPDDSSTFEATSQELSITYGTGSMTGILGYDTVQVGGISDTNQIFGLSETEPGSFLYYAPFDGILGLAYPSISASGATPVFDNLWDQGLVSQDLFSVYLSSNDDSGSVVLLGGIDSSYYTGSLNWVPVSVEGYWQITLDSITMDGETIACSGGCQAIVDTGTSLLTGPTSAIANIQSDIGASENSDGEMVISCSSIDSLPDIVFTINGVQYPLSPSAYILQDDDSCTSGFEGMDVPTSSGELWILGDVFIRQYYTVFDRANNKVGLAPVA
T3 sequence (P29148 287-590): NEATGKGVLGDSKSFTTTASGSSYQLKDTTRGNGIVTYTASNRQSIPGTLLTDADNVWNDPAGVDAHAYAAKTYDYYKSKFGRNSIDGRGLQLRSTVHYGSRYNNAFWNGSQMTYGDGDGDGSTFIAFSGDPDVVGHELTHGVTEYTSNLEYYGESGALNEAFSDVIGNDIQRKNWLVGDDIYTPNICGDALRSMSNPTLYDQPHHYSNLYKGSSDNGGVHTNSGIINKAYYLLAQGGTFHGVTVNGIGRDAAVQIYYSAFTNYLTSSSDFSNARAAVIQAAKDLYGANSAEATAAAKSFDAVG
T4 sequence (P00800 233-548): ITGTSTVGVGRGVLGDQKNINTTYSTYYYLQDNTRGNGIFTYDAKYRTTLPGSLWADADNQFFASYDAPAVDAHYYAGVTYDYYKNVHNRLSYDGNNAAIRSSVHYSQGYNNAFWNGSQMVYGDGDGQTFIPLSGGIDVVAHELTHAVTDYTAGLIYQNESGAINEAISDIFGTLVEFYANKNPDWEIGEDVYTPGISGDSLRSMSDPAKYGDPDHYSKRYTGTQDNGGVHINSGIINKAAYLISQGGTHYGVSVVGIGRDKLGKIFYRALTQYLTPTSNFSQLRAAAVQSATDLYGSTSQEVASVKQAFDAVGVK
T2 sequence (P07711 114-333): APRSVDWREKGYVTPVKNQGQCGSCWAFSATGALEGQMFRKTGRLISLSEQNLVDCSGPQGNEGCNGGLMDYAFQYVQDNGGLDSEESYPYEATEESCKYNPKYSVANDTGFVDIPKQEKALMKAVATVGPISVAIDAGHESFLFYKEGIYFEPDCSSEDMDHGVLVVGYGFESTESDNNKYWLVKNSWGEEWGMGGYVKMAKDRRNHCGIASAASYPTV

Molecule | sensitivity for dispase (hydrolysis, increased fluorescence) [3] | sensitivity for thermolysin (hydrolysis, increased fluorescence) [4] | degree of hydrolysis by Chymotrypsin [7] | degree of hydrolysis by Papain [8] | also measured
CC(C)(C)OC(=O)NC(Cc1ccc(O)c(-c2cc(CC(NC(=O)OC(C)(C)C)C(=O)NNC(=O)c3ccncc3)ccc2O)c1)C(=O)NNC(=O)c1ccncc1 (stereo not shown) [DBDY-(INH)2, reference compound] | – | – | – | – | hydrolysis by cathepsin B [1]: not hydrolyzed; hydrolysis by cathepsin L [2]: not hydrolyzed
CC[C@H](C)[C@H](NC(=O)C(Cc1ccc(O)c(-c2cc(CC(NC(=O)OC(C)(C)C)C(=O)N[C@H](C(=O)NNC(=O)c3ccncc3)[C@@H](C)CC)ccc2O)c1)NC(=O)OC(C)(C)C)C(=O)NNC(=O)c1ccncc1 (stereo partly shown) [DBDY-(Ile-INH)2] | high sensitivity | high sensitivity | – | – | –
CC(C)C[C@H](NC(=O)C(Cc1ccc(O)c(-c2cc(CC(NC(=O)OC(C)(C)C)C(=O)N[C@@H](CC(C)C)C(=O)NNC(=O)c3ccncc3)ccc2O)c1)NC(=O)OC(C)(C)C)C(=O)NNC(=O)c1ccncc1 (stereo partly shown) [DBDY-(Leu-INH)2] | high sensitivity | high sensitivity | – | – | –
CSCC[C@H](NC(=O)C(Cc1ccc(O)c(-c2cc(CC(NC(=O)OC(C)(C)C)C(=O)N[C@@H](CCSC)C(=O)NNC(=O)c3ccncc3)ccc2O)c1)NC(=O)OC(C)(C)C)C(=O)NNC(=O)c1ccncc1 (stereo partly shown) [DBDY-(Met-INH)2] | high sensitivity | high sensitivity | – | – | –
CC(C)(C)OC(=O)NC(Cc1ccc(O)c(-c2cc(CC(NC(=O)OC(C)(C)C)C(=O)N[C@@H](Cc3ccccc3)C(=O)NNC(=O)c3ccncc3)ccc2O)c1)C(=O)N[C@@H](Cc1ccccc1)C(=O)NNC(=O)c1ccncc1 (stereo partly shown) [DBDY-(Phe-INH)2] | high sensitivity | high sensitivity | – | – | –
CC(C)[C@H](NC(=O)C(Cc1ccc(O)c(-c2cc(CC(NC(=O)OC(C)(C)C)C(=O)N[C@H](C(=O)NNC(=O)c3ccncc3)C(C)C)ccc2O)c1)NC(=O)OC(C)(C)C)C(=O)NNC(=O)c1ccncc1 (stereo partly shown) [DBDY-(Val-INH)2] | high sensitivity | high sensitivity | – | – | –
CC(C)(C)OC(=O)NC(Cc1ccc(O)cc1)C(=O)NCC(=O)NNC(=O)c1ccncc1 (stereo not drawn) [Substrate G1, Boc-Tyr- Gly-INH] | – | – | 38.7 ± 2.9 ^d % | 62.8 ± 2.5% | degree of hydrolysis by Pepsin [5]: 2.34 ± 0.45%; degree of hydrolysis by Thermolysin [6]: 0.74 ± 0.02%
CC(C)(C)OC(=O)NC(Cc1ccccc1)C(=O)NCC(=O)NNC(=O)c1ccncc1 (stereo not drawn) [Substrate G2, Boc-Phe-Gly-INH] | – | – | 28.6 ± 3.4 ^d % | 51.0 ± 3.5% | degree of hydrolysis by Pepsin [5]: 1.61 ± 0.05%
CC(C)(C)OC(=O)NC(Cc1c[nH]c2ccccc12)C(=O)NCC(=O)NNC(=O)c1ccncc1 (stereo not drawn) [Substrate G3, Boc-Trp-Gly-INH] | – | – | 17.3 ± 5.5 ^d % | 58.8 ± 6.2% | degree of hydrolysis by Pepsin [5]: 3.21 ± 0.45%; degree of hydrolysis by Thermolysin [6]: 0.74 ± 0.05%
CC(C)(C)OC(=O)NC(Cc1ccc(O)cc1)C(=O)NC(CCCCN)C(=O)NNC(=O)c1ccncc1 (stereo not drawn) [Substrate L1, Boc-Tyr-Lys-INH] | – | – | 37.6 ± 5.2 ^e % | 77.4 ± 5.8% | degree of hydrolysis by Pepsin [5]: 0.74 ± 0.04%; degree of hydrolysis by Trypsin [9]: 69.6 ± 4.1%
CC(C)(C)OC(=O)NC(Cc1ccccc1)C(=O)NC(CCCCN)C(=O)NNC(=O)c1ccncc1 (stereo not drawn) [Substrate L2, Boc-Phe-Lys-INH] | – | – | 53.2 ± 4.8 ^e % | 89.1 ± 2.5% | degree of hydrolysis by Trypsin [9]: 81.2 ± 4.9%
CC(C)(C)OC(=O)NC(Cc1c[nH]c2ccccc12)C(=O)NC(CCCCN)C(=O)NNC(=O)c1ccncc1 (stereo not drawn) [Substrate L3, Boc-Trp-Lys-INH] | – | – | 58.3 ± 1.2 ^e % | 93.1 ± 8.9% | degree of hydrolysis by Thermolysin [6]: 4.04 ± 0.08%; degree of hydrolysis by Trypsin [9]: 85.1 ± 3.7%
Abz-Gly-Ile-Val-Arg-Ala-Lys(Dnp)-OH ([2Abz]GIVRAK(Dnp)-OH) | – | – | – | – | Km ([10]; unit inferred): 5.9 µM
Abz-Phe-Arg-Dap(Dnp)-Trp-OH | – | – | – | – | Km [10]: 3 µM
Abz-Phe-Phe-Dap(Dnp)-Trp-OH | – | – | – | – | Km [10]: 2.1 µM
